# Measurements: ChEMBL document CHEMBL5550200, “Back-Pocket Optimization of 2-Aminopyrimidine-Based Macrocycles Leads to Potent EPHA2/GAK Kinase Inhibitors” (J Med Chem, 2024)
# Tests used:
# [1] = biological target: Ephrin type-A receptor 4 (Homo sapiens, UniProt P54764); test: Induction of stabilization of recombinant EPHA4 (unknown origin) assessed as change in melting temperature by differential scanning fluorimetry assay
# [2] = biological target: Ephrin type-A receptor 7 (Homo sapiens) (UniProt Q15375); test: Induction of stabilization of recombinant EPHA7 (unknown origin) assessed as change in melting temperature by differential scanning fluorimetry assay
# [3] = biological target: T1, Ephrin type-B receptor 1 (Homo sapiens) (UniProt P54762); test: Induction of stabilization of recombinant EPHB1 (unknown origin) assessed as change in melting temperature by differential scanning fluorimetry assay
# T1 sequence (whole entry): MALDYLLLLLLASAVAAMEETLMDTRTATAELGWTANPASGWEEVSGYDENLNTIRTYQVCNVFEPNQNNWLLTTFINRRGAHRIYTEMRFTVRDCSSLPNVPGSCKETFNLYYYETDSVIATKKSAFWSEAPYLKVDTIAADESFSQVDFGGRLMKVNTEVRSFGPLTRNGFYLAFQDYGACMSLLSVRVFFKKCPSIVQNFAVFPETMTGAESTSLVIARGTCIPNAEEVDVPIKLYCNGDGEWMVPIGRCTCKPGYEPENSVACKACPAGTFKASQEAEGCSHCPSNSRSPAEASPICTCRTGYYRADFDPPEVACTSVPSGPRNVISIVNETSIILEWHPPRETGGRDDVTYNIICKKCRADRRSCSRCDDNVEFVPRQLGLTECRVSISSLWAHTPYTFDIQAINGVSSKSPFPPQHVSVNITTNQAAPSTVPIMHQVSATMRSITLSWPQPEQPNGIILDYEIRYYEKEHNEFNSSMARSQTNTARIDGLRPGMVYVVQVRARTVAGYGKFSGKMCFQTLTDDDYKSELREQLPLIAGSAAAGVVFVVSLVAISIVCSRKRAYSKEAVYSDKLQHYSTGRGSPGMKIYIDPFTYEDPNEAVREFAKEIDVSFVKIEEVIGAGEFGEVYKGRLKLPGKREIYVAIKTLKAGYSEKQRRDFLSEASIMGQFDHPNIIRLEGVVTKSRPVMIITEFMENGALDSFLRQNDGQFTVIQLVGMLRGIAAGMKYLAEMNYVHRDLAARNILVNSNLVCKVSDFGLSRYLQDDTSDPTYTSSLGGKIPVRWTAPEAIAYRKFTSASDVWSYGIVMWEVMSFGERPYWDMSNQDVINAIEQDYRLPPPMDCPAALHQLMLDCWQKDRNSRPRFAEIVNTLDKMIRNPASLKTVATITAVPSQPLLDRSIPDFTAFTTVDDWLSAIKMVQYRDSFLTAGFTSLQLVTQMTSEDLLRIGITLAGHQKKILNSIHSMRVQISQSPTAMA
# [4] = biological target: T2, Ephrin type-B receptor 3 (Homo sapiens) (UniProt P54753); test: Induction of stabilization of recombinant EPHB3 (unknown origin) assessed as change in melting temperature by differential scanning fluorimetry assay
# T2 sequence (whole entry): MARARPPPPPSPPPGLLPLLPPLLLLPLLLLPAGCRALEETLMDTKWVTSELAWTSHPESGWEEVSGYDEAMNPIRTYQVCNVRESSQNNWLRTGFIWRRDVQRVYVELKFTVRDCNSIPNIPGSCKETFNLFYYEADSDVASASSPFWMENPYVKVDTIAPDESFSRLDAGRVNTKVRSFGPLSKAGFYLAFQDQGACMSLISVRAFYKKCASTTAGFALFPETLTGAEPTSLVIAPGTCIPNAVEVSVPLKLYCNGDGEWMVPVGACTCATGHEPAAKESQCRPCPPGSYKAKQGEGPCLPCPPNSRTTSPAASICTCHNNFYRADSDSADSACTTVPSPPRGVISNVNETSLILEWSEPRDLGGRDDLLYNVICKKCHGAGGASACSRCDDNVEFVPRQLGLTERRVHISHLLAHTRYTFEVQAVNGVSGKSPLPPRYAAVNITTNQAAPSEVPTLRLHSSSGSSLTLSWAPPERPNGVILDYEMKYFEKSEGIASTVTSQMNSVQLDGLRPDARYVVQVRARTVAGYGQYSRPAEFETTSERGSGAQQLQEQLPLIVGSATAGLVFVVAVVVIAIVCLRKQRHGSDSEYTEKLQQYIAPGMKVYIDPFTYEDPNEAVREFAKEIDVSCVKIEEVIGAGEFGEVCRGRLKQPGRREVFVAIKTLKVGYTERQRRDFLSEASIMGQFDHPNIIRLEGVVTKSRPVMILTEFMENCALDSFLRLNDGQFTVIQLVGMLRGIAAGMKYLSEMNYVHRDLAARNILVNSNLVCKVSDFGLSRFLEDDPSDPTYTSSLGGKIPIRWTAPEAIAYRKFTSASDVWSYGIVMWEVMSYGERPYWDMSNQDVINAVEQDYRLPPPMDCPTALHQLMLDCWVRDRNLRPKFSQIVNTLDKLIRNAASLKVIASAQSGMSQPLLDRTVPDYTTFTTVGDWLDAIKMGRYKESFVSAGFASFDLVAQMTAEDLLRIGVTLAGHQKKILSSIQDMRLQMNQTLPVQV
# [5] = biological target: Vascular endothelial growth factor receptor 1 (Homo sapiens, UniProt P17948); test: Induction of stabilization of recombinant FLT1 (unknown origin) assessed as change in melting temperature by differential scanning fluorimetry assay
# [6] = biological target: Ephrin type-A receptor 2 (Homo sapiens, UniProt P29317)
# Description: Induction of stabilization of recombinant EPHA2 (D596 to G900 residues) (unknown origin) expressed in Escherichia coli rosetta BL21(D3)-R3-pRARE2 competent cells assessed as change in melting temperature by differential scanning fluorimetry assay
# [7] = biological target: Ephrin type-A receptor 5 (Homo sapiens) (UniProt P54756)
# Description: Induction of stabilization of recombinant EPHA5 (unknown origin) assessed as change in melting temperature by differential scanning fluorimetry assay
# [8] = biological target: Fibroblast growth factor receptor 1 (Homo sapiens, UniProt P11362)
# Description: Induction of stabilization of recombinant FGFR1 (unknown origin) assessed as change in melting temperature by differential scanning fluorimetry assay
# [9] = biological target: Fibroblast growth factor receptor 2 (Homo sapiens) (UniProt P21802)
# Sequence of Fibroblast growth factor receptor 2 (Homo sapiens) (P21802 22-821 limits assumed): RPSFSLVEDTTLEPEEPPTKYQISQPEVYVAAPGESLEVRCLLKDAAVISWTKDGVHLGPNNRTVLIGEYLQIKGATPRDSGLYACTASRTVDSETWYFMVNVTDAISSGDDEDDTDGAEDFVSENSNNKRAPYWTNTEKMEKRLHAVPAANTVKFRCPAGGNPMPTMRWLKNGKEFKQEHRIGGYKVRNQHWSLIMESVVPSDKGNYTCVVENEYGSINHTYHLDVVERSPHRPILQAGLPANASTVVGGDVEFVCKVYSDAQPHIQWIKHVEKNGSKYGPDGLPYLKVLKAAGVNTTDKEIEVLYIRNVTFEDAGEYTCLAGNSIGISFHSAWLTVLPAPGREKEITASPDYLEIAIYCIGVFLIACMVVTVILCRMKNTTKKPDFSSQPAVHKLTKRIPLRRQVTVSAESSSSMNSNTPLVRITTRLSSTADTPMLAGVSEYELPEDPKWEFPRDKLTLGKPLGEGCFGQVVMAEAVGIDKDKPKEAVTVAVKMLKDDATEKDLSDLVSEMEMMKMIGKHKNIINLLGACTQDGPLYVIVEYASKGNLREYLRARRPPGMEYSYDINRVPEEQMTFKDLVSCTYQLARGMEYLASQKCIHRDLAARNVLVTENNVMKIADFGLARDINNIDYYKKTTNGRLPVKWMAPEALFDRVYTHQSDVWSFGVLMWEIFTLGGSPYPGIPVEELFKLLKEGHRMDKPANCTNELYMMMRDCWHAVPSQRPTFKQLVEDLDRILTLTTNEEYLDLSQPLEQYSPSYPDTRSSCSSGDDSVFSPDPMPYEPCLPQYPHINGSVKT
# Description: Induction of stabilization of recombinant FGFR2 (unknown origin) assessed as change in melting temperature by differential scanning fluorimetry assay
# Sequence of Fibroblast growth factor receptor 1 (P11362 22-822 limits assumed): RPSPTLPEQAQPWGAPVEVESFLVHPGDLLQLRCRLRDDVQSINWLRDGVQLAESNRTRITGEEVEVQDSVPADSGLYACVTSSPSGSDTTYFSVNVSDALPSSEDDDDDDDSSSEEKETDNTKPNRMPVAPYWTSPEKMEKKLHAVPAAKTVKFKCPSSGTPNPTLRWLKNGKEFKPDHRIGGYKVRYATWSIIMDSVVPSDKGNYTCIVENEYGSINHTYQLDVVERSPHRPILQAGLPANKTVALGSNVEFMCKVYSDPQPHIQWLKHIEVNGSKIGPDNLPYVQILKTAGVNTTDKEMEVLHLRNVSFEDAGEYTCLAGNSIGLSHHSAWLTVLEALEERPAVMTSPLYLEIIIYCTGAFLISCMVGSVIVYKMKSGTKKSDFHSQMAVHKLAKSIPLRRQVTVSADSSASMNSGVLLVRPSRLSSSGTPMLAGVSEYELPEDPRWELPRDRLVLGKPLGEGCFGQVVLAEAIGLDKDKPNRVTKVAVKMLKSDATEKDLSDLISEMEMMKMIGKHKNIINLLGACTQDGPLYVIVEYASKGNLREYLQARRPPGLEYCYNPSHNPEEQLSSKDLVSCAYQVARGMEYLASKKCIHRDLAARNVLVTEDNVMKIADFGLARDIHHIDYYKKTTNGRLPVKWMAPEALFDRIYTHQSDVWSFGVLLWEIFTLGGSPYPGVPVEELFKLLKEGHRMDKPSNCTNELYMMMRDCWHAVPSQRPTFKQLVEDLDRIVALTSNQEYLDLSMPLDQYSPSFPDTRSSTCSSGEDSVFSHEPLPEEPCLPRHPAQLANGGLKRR
# Sequence of Vascular endothelial growth factor receptor 1 (P17948 whole entry): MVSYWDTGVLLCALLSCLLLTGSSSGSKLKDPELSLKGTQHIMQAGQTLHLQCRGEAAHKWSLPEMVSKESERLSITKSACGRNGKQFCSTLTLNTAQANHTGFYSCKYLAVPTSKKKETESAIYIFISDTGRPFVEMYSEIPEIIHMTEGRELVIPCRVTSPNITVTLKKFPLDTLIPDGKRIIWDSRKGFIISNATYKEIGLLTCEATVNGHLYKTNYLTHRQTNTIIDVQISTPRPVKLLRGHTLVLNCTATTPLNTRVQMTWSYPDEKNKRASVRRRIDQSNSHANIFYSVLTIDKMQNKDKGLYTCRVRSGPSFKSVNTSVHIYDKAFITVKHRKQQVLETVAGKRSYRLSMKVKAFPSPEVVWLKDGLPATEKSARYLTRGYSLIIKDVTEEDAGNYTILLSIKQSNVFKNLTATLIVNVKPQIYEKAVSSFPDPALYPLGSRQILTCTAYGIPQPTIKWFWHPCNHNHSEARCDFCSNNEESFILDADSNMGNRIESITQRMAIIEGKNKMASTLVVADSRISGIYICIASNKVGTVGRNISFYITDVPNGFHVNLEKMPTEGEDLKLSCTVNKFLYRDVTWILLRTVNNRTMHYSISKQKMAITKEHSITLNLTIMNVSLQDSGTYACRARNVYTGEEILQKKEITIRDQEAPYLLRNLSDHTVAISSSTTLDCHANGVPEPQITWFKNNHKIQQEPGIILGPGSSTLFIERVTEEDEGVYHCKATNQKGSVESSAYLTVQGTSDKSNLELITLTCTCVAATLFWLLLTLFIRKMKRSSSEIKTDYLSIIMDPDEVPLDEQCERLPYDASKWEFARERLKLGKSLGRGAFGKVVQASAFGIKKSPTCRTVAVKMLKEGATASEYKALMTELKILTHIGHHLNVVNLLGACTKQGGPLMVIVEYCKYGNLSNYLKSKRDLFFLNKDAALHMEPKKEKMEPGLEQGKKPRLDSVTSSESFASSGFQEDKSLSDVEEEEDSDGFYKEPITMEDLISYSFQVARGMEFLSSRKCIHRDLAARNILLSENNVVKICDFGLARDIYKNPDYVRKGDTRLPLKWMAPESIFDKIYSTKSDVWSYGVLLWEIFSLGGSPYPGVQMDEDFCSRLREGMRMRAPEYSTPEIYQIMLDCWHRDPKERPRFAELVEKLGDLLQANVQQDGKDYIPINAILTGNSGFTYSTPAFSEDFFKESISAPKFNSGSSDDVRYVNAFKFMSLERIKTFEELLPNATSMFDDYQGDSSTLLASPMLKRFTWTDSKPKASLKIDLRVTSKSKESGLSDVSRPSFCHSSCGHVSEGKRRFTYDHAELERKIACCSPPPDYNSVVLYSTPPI
# Sequence of Ephrin type-A receptor 7 (Homo sapiens) (Q15375 28-998 limits assumed): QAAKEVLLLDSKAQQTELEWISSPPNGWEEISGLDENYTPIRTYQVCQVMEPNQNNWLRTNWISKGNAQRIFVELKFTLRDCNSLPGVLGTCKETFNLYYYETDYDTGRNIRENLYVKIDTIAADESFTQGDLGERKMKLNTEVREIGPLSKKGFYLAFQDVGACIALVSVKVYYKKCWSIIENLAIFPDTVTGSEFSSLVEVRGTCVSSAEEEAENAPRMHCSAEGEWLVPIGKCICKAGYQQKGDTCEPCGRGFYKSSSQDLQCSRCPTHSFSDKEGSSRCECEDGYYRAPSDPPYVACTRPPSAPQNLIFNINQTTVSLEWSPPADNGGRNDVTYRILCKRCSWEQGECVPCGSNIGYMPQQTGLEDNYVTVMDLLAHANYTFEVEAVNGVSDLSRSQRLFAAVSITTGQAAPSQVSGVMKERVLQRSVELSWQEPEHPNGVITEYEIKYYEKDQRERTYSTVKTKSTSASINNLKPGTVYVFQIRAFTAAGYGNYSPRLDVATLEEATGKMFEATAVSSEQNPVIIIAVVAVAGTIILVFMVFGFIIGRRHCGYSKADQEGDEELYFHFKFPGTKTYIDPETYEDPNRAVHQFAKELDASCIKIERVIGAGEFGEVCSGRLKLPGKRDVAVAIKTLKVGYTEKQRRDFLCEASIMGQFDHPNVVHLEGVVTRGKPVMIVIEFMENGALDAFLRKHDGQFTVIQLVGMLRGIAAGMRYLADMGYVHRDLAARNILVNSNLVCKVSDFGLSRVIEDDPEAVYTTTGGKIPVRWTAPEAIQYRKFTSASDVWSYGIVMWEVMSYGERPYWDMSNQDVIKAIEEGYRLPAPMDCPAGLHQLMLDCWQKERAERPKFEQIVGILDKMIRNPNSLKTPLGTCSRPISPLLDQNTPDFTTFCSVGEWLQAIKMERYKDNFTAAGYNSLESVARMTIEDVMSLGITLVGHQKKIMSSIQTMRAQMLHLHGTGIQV
# Sequence of Ephrin type-A receptor 5 (Homo sapiens) (P54756 whole entry): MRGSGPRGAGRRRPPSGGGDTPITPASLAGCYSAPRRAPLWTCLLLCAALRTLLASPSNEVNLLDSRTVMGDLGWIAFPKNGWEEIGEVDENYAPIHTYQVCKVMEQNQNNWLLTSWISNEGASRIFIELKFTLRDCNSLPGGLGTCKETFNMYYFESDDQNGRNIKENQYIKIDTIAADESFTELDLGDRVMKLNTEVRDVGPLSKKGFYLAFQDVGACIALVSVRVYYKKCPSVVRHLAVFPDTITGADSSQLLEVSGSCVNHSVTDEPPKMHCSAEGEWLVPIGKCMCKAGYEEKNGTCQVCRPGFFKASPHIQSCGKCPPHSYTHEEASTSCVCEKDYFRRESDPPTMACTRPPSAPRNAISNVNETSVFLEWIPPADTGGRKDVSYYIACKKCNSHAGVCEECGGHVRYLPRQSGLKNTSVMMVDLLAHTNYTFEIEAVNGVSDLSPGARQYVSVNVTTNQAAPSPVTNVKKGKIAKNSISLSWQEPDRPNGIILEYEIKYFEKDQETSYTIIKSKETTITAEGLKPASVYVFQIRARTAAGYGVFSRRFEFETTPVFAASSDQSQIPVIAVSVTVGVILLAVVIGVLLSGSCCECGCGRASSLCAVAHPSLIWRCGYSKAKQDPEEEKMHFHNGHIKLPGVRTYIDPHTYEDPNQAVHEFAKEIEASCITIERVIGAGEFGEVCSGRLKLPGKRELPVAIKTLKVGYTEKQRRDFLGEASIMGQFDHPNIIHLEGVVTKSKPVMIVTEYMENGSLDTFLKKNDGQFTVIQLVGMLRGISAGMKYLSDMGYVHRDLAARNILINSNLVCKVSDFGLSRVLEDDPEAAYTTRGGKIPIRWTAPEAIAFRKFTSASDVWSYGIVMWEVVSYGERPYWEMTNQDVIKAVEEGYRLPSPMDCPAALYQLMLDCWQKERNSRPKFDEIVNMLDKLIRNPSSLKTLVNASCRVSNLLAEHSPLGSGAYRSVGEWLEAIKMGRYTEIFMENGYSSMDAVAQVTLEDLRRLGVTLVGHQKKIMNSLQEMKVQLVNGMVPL
Structure (SMILES),deltaTm [1] [K],deltaTm [2] [K],deltaTm [3] [K],deltaTm [4] [K],deltaTm [5] [K],deltaTm [6] [K],deltaTm [7] [K],deltaTm [8] [K],deltaTm [9] [K]
COc1cc(-c2cnc3nc2NCCCNS(=O)(=O)c2cccc(c2)N3)c(F)cc1F,2.8,0.4,3.3,3.9,3.4,6.9,5,2.7,3.6
COc1c(F)ccc(-c2cnc3nc2NCCCNS(=O)(=O)c2cccc(c2)N3)c1F,4.9,-2.5,5.6,4.8,8.8,8.8,5.4,5.2,5.8
O=S1(=O)NCCCNc2nc(ncc2-c2ccc(Cl)c(Cl)c2)Nc2cccc1c2,2.9,2.4,2.2,3.2,3.6,6.2,3.4,2.8,3.9
COc1cc(-c2cnc3nc2NCCCNS(=O)(=O)c2cc(ccc2O)N3)ccc1F,3.3,0.3,3.5,4.2,3,7.9,4.7,1.9,3
